Laboratory results as given in US11446282B2, “Methods of treating mixed dyslipidemia and hypertriglycertdemia” (Kowa Company, Ltd., priority 2017, dated 2022).

Key:
[1] = test system: patients with dyslipidemia; experiment: Previous clinical trials of pemafibrate (healthy adults, patients with dyslipidemia); format: in vivo, human
Method: (§1) In previous clinical trials, pemafibrate has been administered at doses ranging from 0.1 mg to 1.6 mg per day in healthy adults. Doses up to 0.4 mg per day have been administered in patients with dyslipidemia. […] Increases in LDL-C, both by beta quantification and calculation with the Friedewald equation, were also observed. Based on analysis of efficacy variables, pemafibrate appeared to have a lowering effect on Apo C3 that led to the conversion of VLDL particles to LDL particles, increasing the fraction of larger LDL particles, and reducing TG levels. Similarly, the reduction of Apo C3 led to increased removal of remnant-like particles and lowering of Apo B48. […] The observed increases in Apo A1 and HDL-C resulted from both increased production of Apo A1 in the liver and increased turnover of TG-rich lipoproteins, both of which were associated with a decreased CHD risk.
Because the urinary excretion of pemafibrate is low, as shown by nonclinical and clinical studies, it is expected that pemafibrate can be used safely even in patients with renal impairment. In addition, because the drug has minimal inhibitory effects on major drug metabolizing enzymes in the liver, it is unlikely to cause drug-drug interactions; however, drugs which are strong organic anion-transporting polypeptide (OATP) inhibitors (e.g., cyclosporine and rifampin) do interact with pemafibrate.

[2] = test system: European patients; experiment: Study K-877-201, Phase 2 dose-finding study conducted in Europe; format: in vivo, human
Method: as §1

[3] = baseline to Week 12, last observation carried forward

## CC[C@@H](Oc1cccc(CN(CCCOc2ccc(OC)cc2)c2nc3ccccc3o2)c1)C(=O)O [Pemafibrate, (2R)-2-[3-({1,3-benzoxazol-2-yl[3-(4-methoxyphenoxy)propyl]amino}methyl)phenoxy]butanoic acid]
[1]; Japanese and European patients
  TG change: dose-dependent decreases
[1]; total daily doses 0.1 mg to 0.4 mg, daily or divided twice daily
  safety profile: acceptable safety profile
[2]; 0.2 mg twice daily
  placebo-adjusted TG reduction: 54.4%
[2]; [3]
  Apo A1 change: increases
  Apo A2 change: increases
  Apo B48 change: decreases
  Apo C2 change: decreases
  Apo C3 change: decreases
  FGF21 change: increases
  HDL-C change: increases
  VLDL-C change: decreases
[2]; by beta quantification and Friedewald equation
  LDL-C change: Increases
[2]; in vivo
  non-HDL-C change: decrease
  total Apo B levels change: no changes
[2]; twice daily compared to once daily
  efficacy in TG reduction and HDL-C elevation: Greater efficacy
